PMC7168333, “5-(Carbamoylmethylene)-oxazolidin-2-ones as a Promising Class of Heterocycles Inducing Apoptosis Triggered by Increased ROS Levels and Mitochondrial Dysfunction in Breast and Cervical Cancer” (Biomedicines, 2020)

Columns and labels:
MCF-7 cells = assay: MTT cell viability assay, MCF-7; type: cell-based; settings: Homo sapiens, MCF7, 72 h
Protocol: Cell viability was assessed by using 3-(4,5-dimethylthiazol-2-y1)-2,5-diphenyltetrazolium bromide (MTT) assay (Sigma-Aldrich, Milan, Italy), as already reported. […] Untreated cells were added with the vehicle (DMSO) and used as a control. After treatment, fresh MTT reagent (used at a final concentration of 0.5 mg/mL) was added, prolonging incubation for 2 h according to the manufacturer’s protocol. Absorbance at 570 nm was measured in each well, including controls, and every experiment was carried out in triplicate.
For each sample, mean absorbance was expressed as a percentage of the control and plotted vs. drug concentration, in order to determine the IC50 value (i.e., drug concentration able to decrease cell viability by 50% with respect to the control) for each cell line, generating a sigmoidal dose–response curve by the use of GraphPad Prism 7 software (GraphPad Inc., San Diego, CA, USA). Mean values and standard deviations (SD) of three independent experiments carried out in triplicate were reported. […]

MCF-10A cells = assay: MTT cell viability assay, MCF-10A; type: cell-based, human
HeLa cells [1] = assay: Cell cycle analysis (PI staining, flow cytometry), HeLa; type: cell-based, human; settings: 30 µM, 24 h
Protocol: In order to assess cell cycle analysis, MCF-7 and HeLa cells were seeded in 6-well plates, at a density of 2.5 × 10^5 cells/well, then they were added to DMSO or treated using 15 and 30 µM OI, respectively, for 24 h. MCF-10A were seeded as described before, then they were added to DMSO or treated using 30 µM OI, the highest concentration used for cancer cells, for 24 h. Next, cells were harvested by trypsinization, rinsed twice with cold PBS, and pelleted by centrifugation at 1500 rpm for 5 min. Pellets were re-suspended in 70% ice-cold ethanol for 30 min at 4 °C to perform cell fixation. Then, samples were rinsed twice with PBS and stained using a solution containing 3.8 mM sodium citrate (Sigma-Aldrich, Milan, Italy), 100 μg/mL RNAse (Sigma-Aldrich, Milan, Italy), 50 μg/mL propidium iodide (PI, Sigma-Aldrich, Milan, Italy), and 0.1% Igepal (Sigma-Aldrich, Milan, Italy) in PBS for 1 h at 37 °C. Subsequent cytofluorimetric analysis was achieved by BD FACSJazz™ Cell Sorter (Becton Dickinson, Franklin Lakes, NJ, USA).

[2] = tested on: procaspases -8 and -9 in HeLa cells; assay: Western blot of procaspases -8 and -9, HeLa; type: cell-based, human; settings: 30 µM, 24 and 72 h
Protocol: Western blot analysis was conducted basically as previously reported. […] In order to obtain total cell lysates, harvested cells were lysed using 200 μL of lysis buffer as previously reported. Cytosolic and mitochondrial fractions were isolated as already described. Identical amounts of proteins from total lysate, mitochondrial, or cytosolic fraction were resolved on SDS-polyacrylamide gel, blotted to nitrocellulose membrane, and probed with proper primary antibodies (Santa Cruz Biotechnology, Dallas, TX, USA). Immunoreactive products were identified by using ECL Western blotting detection system (Bio-Rad Laboratories, Hercules, CA, USA).

[3] = tested on: cytochrome c in MCF-7 cells; assay: Western blot of cytochrome c in cytosolic and mitochondrial fractions, MCF-7; type: cell-based, human; settings: MCF-7, 15 µM, 24 h, vs control
Protocol: (§1) Both MCF-7 and HeLa cells were cultured in 100 mm dishes (1 × 10^7 cells/dish), added with the vehicle alone (DMSO) or treated for 24 h with 15 and 30 µM OI, respectively. Then, mitochondria extraction was performed as previously described. In brief, cells were harvested, resuspended in isolation buffer for cells (IBC, containing 200 mM sucrose, 10 mM Tris/MOPS, 1 mM EDTA/Tris, pH 7.4), and homogenized by a glass potter homogenizer. Nuclei and unbroken cells were removed by centrifugation (600× g for 10 min). Supernatants were centrifuged for 30 min at 10,000× g, obtaining upper cytosolic fractions and mitochondrial pellets; the latter were resuspended in RIPA buffer (PBS pH 7.4, 1% NP-40, 0.5% sodium deoxycholate, and 0.1% sodium dodecyl sulfate) containing a protease and phosphatase inhibitor cocktail (Sigma-Aldrich, Milan, Italy). Protein concentration was determined using Bio-Rad Protein Assay (Bio-Rad Laboratories, Hercules, CA, USA) and Western blotting was performed as next described.
(§2) Western blot analysis was conducted basically as previously reported. In detail, MCF-7 and HeLa cells were grown to 70–80% confluence, added to DMSO, or treated with 15 and 30 µM OI, respectively, for 24 h. In order to obtain total cell lysates, harvested cells were lysed using 200 μL of lysis buffer as previously reported. Cytosolic and mitochondrial fractions were isolated as already described. […]

[4] = tested on: cytochrome c in HeLa cells; assay: Western blot of cytochrome c in cytosolic and mitochondrial fractions, HeLa; type: cell-based, human; settings: 30 µM, 24 h, vs control
Protocol: as §1, §2

HeLa cells [5] = assay: ROS production (CM-H2DCFDA, FACS), HeLa; type: cell-based, human; settings: 24 h
Protocol: Intracellular level of reactive oxygen species (ROS) was assessed by using CM-H2DCFDA (Invitrogen, Milan, Italy), a cell-permeable fluorogenic probe, which is deacetylated by intracellular esterases and can be oxidized in the presence of intracellular ROS, becoming highly fluorescent. MCF-7 and HeLa cells were seeded into 96-well tissue culture plates at a density of 5 × 10^4 cells/well and treated with 15 and 30 µM OI, respectively, for 24 h. Control cells were added with DMSO and processed at the same time. Then, cells were washed with PBS and stained in the dark with CM-H2DCFDA (diluted in PBS/CM to a final concentration of 1 μM) for 20 min at 37 °C. Next steps were also performed in the dark, in order to avoid probe oxidation. Cells were washed three times with PBS, harvested, re-suspended in PBS/CM, and fluorescence was measured by using Fortessa (BD Bioscience, San Jose, CA, USA). ROS levels were estimated by using mean fluorescent intensity of the viable cell population. Results were analyzed by the use of FlowJo software (Tree Star Inc., Ashland, OR, USA).

Q: `CCN(CC)C(=O)/C=C1/OC(=O)N(Cc2ccccc2)C1(C)C` [OI, (E)-2-(3-benzyl-4,4-dimethyl-2-oxooxazolidin-5-ylidene)-N,N-diethylacetamide] was tested. Which IC50 (MCF-7 cells) did it give?
A: Its IC50 is 17.7 µM.

Q: What about the IC50 (MCF-10A cells; Homo sapiens, MCF-10A, 72 h) of the same molecule?
A: The IC50 was 351 µM.

Q: And the “anti-proliferative effect / cytotoxicity on non-tumorigenic MCF-10A cells” value (MCF-10A cells; up to 72 h)?
A: Its value is “no significant anti-proliferative effect”.

Q: And the “cells in the G1 phase” value (HeLa cells [1])?
A: Its value is “remarkable increase”.

Q: And the “cells in the S phase” value (HeLa cells [1])?
A: Its value is “considerable decrease”.

Q: And the “expression level of activated caspase-8” value [2]?
A: Its value is “unaffected”.

Q: What about the “proteolytic cleavage of pro-caspase-9 into its active form” value [2] of the same molecule?
A: Its value is “time-dependently activated”.

Q: What about the “cytochrome c levels in the cytosolic fraction” value [3] of the same molecule?
A: The value was “significant increases”.

Q: And the “cytochrome c mitochondrial levels” value [3]?
A: Its value is “concomitant decreases”.

Q: And the “cytochrome c levels in the cytosolic fraction” value [4]?
A: The value was “significant increases”.

Q: And the “cytochrome c mitochondrial levels” value [4]?
A: Its value is “concomitant decreases”.

Q: What about the “ROS increase in the presence of NAC” value (HeLa cells [5]; 30 µM OI + NAC) of the same molecule?
A: Its value is “no longer evident”.

Q: And the ROS generation (HeLa cells [5]; 30 µM, vs control)?
A: Its ROS generation is “significantly stimulated”.
